Laboratory results as given in patent publication US20260022142A1, “MACROCYCLIC IMMUNOMODULATORS” (Bristol-Myers Squibb Company, priority 2022, published 2026).
pIC50: −log10 of the molar value. Bridge positions count the residues as written; N and C are the ends. Square brackets hold non-standard residues; d marks the D form. Peptide text beside a SMILES is read from it. * marks the point of attachment. Phe(4-COOH) = N[C@@H](Cc1ccc(C(=O)O)cc1)C(=O)O; Bip = N[C@@H](Cc1ccc(-c2ccccc2)cc1)C(=O)O; Phe(3-Me) = Cc1cccc(C[C@H](N)C(=O)O)c1; 4Pal = N[C@@H](Cc1ccncc1)C(=O)O; Aad = N[C@@H](CCCC(=O)O)C(=O)O; Cha = N[C@@H](CC1CCCCC1)C(=O)O; Pen = CC(C)(S)[C@H](N)C(=O)O; Carboxymethyl = O=C(O)C*; Orn = NCCC[C@H](N)C(=O)O; Aun = NCCCCCCCCCCC(=O)O; Dab = NCC[C@H](N)C(=O)O; Dap = NC[C@H](N)C(=O)O

Target: T1, PD-1/PD-L1 interaction (PE-labeled human PD-L1-Ig binding to Jurkat cell line over-expressing human PD-1) (Homo sapiens, UniProt Q15116)
T1 construct: expressed in transfected cells; host or cells: Jurkat
T1 sequence (Q15116 25-288): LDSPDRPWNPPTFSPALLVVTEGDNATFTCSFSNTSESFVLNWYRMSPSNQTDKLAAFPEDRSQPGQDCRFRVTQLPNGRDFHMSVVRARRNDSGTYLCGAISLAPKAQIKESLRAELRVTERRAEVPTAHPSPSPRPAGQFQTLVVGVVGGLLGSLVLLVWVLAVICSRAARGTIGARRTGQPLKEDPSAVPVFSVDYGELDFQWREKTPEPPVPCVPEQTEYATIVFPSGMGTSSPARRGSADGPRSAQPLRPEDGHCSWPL
Experiment: Jurkat-PD-1 Cell Binding High-Content Screening Assay (CBA)
Format: cell-based
Conditions: Jurkat cell line over-expressing human PD-1; PE-labeled PD-L1-Ig 20 nM final; read-out: Jurkat hPD1-PDL1 IC50
Procedure, shortened: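 Binding of fluorescent PD-L1-Ig (phycoerythrin on Ig tag, 20 nM final, 1 h) measured by high-content imaging of fixed, Hoechst-counterstained Jurkat-hPD-1 cells. Compound added 2 h at 37° C beforehand, in DMEM with 10% fetal calf serum.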

Structure (SMILES) | pIC50
CC(C)C[C@H]1NC(=O)[C@H](CCCN)NC(=O)[C@H](Cc2ccc(O)cc2)NC(=O)[C@H](Cc2ccc(-c3ccccc3)cc2)NC(=O)[C@H](C(C)C)NC(=O)[C@H](Cc2c[nH]c3ccccc23)NC(=O)[C@H](CC(=O)O)NC(=O)[C@H](Cc2ccc(OCC(=O)O)cc2)NC(=O)[C@H](Cc2ccncc2)NC(=O)CSC[C@@H](C(=O)N[C@@H](CCN)C(=O)NCCCCCCCCCCC(=O)O)NC(=O)[C@H]([C@@H](C)O)NC(=O)[C@H](C(C)C)NC(=O)[C@H](CC2CCCCC2)NC(=O)[C@H](CCN)NC1=O [Compound 2741] ({CH2CO}-[4Pal]Y(Carboxymethyl)DWV[Bip]Y[Orn][dL][Dab][Cha]VTC[Dab][Aun]-OH; thioether N-14) | 7.27
CC(C)C[C@@H]1NC(=O)[C@H](CCN)NC(=O)[C@@H](CC(C)C)NC(=O)[C@H](CCCN)NC(=O)[C@H](Cc2ccc(O)cc2)NC(=O)[C@H](Cc2ccc(-c3ccccc3)cc2)NC(=O)[C@H](C(C)C)NC(=O)[C@H](Cc2c[nH]c3ccccc23)NC(=O)[C@H](CC(=O)O)NC(=O)[C@H](Cc2ccc(OCC(=O)O)cc2)NC(=O)[C@H](Cc2ccncc2)NC(=O)CSC[C@@H](C(=O)N[C@@H](CCN)C(=O)NCCCCCCCCCCC(=O)O)NC(=O)[C@H]([C@@H](C)O)NC(=O)[C@H](C(C)C)NC1=O [Compound 2742] ({CH2CO}-[4Pal]Y(Carboxymethyl)DWV[Bip]Y[Orn][dL][Dab]LVTC[Dab][Aun]-OH; thioether N-14) | 6.88
CC(C)C[C@H]1NC(=O)[C@H](CCCN)NC(=O)[C@H](Cc2ccc(O)cc2)NC(=O)[C@H](Cc2ccc(-c3ccccc3)cc2)NC(=O)[C@H](C(C)C)NC(=O)[C@H](Cc2c[nH]c3ccccc23)NC(=O)[C@H](CC(=O)O)NC(=O)[C@H](Cc2ccc(O)cc2)NC(=O)[C@H](Cc2ccncc2)NC(=O)CSC[C@@H](C(=O)N[C@@H](CCN)C(=O)NCCCCCCCCCCC(=O)O)NC(=O)[C@H]([C@@H](C)O)NC(=O)[C@H](C(C)C)NC(=O)[C@H](CC2CCCCC2)NC(=O)[C@H](CCN)NC1=O [Compound 2743] ({CH2CO}-[4Pal]YDWV[Bip]Y[Orn][dL][Dab][Cha]VTC[Dab][Aun]-OH; thioether N-14) | 7.01
Cc1cccc(C[C@@H]2NC(=O)[C@H](CC(=O)O)NC(=O)[C@H](Cc3ccc(OCC(=O)O)cc3)NC(=O)[C@H](Cc3ccncc3)NC(=O)CSC[C@@H](C(=O)N[C@@H](CCN)C(=O)NCCCCCCCCCCC(=O)O)NC(=O)[C@H]([C@@H](C)O)NC(=O)[C@H](C(C)C)NC(=O)[C@H](CC3CCCCC3)NC(=O)[C@H](CCN)NC(=O)[C@@H](CC(C)C)NC(=O)[C@H](CCCN)NC(=O)[C@H](Cc3ccc(O)cc3)NC(=O)[C@H](Cc3ccc(-c4ccccc4)cc3)NC(=O)[C@H](C(C)C)NC2=O)c1 [Compound 2744] ({CH2CO}-[4Pal]Y(Carboxymethyl)D[Phe(3-Me)]V[Bip]Y[Orn][dL][Dab][Cha]VTC[Dab][Aun]-OH; thioether N-14) | 7.14
Cc1cccc(C[C@@H]2NC(=O)[C@H](CC(=O)O)NC(=O)[C@H](Cc3ccc(O)cc3)NC(=O)[C@H](Cc3ccncc3)NC(=O)CSC[C@@H](C(=O)N[C@@H](CCN)C(=O)NCCCCCCCCCCC(=O)O)NC(=O)[C@H]([C@@H](C)O)NC(=O)[C@H](C(C)C)NC(=O)[C@H](CC3CCCCC3)NC(=O)[C@H](CCN)NC(=O)[C@@H](CC(C)C)NC(=O)[C@H](CCCN)NC(=O)[C@H](Cc3ccc(O)cc3)NC(=O)[C@H](Cc3ccc(-c4ccccc4)cc3)NC(=O)[C@H](C(C)C)NC2=O)c1 [Compound 2745] ({CH2CO}-[4Pal]YD[Phe(3-Me)]V[Bip]Y[Orn][dL][Dab][Cha]VTC[Dab][Aun]-OH; thioether N-14) | 6.58
CC(C)C[C@H]1NC(=O)[C@H](CCCN)NC(=O)[C@H](Cc2ccc(O)cc2)NC(=O)[C@H](Cc2ccc(-c3ccccc3)cc2)NC(=O)[C@H](C(C)C)NC(=O)[C@H](Cc2c[nH]c3ccccc23)NC(=O)[C@H](CC(=O)O)NC(=O)[C@H](Cc2ccncc2)NC(=O)[C@H](Cc2ccc(OCC(=O)O)cc2)NC(=O)CSC[C@@H](C(=O)N[C@@H](CCN)C(=O)NCCCCCCCCCCC(=O)O)NC(=O)[C@H]([C@@H](C)O)NC(=O)[C@H](C(C)C)NC(=O)[C@H](CC2CCCCC2)NC(=O)[C@H](CCN)NC1=O [Compound 2746] ({CH2CO}-Y(Carboxymethyl)[4Pal]DWV[Bip]Y[Orn][dL][Dab][Cha]VTC[Dab][Aun]-OH; thioether N-14) | 7.31
Cc1cccc(C[C@@H]2NC(=O)[C@H](CC(=O)O)NC(=O)[C@H](Cc3ccc(OCC(=O)O)cc3)NC(=O)[C@H](Cc3ccc(OCC(=O)O)cc3)NC(=O)CSC[C@@H](C(=O)N[C@@H](CCN)C(=O)NCCCCCCCCCCC(=O)O)NC(=O)[C@H]([C@@H](C)O)NC(=O)[C@H](C(C)C)NC(=O)[C@H](CC(C)C)NC(=O)[C@H](CCN)NC(=O)[C@@H](CC(C)C)NC(=O)[C@H](CCCN)NC(=O)[C@H](Cc3ccc(O)cc3)NC(=O)[C@H](Cc3ccc(-c4ccccc4)cc3)NC(=O)[C@H](CC(C)C)NC2=O)c1 [Compound 2747] ({CH2CO}-Y(Carboxymethyl)Y(Carboxymethyl)D[Phe(3-Me)]L[Bip]Y[Orn][dL][Dab]LVTC[Dab][Aun]-OH; thioether N-14) | 7.35
Cc1cccc(C[C@@H]2NC(=O)[C@H](CC(=O)O)NC(=O)[C@H](Cc3ccc(C(=O)O)cc3)NC(=O)[C@H](Cc3ccc(OCC(=O)O)cc3)NC(=O)CSC[C@@H](C(=O)N[C@@H](CCN)C(=O)NCCCCCCCCCCC(=O)O)NC(=O)[C@H]([C@@H](C)O)NC(=O)[C@H](C(C)C)NC(=O)[C@H](CC3CCCCC3)NC(=O)[C@H](CCN)NC(=O)[C@@H](CC(C)C)NC(=O)[C@H](CCCN)NC(=O)[C@H](Cc3ccc(O)cc3)NC(=O)[C@H](Cc3ccc(-c4ccccc4)cc3)NC(=O)[C@H](C(C)C)NC2=O)c1 [Compound 2748] ({CH2CO}-Y(Carboxymethyl)[Phe(4-COOH)]D[Phe(3-Me)]V[Bip]Y[Orn][dL][Dab][Cha]VTC[Dab][Aun]-OH; thioether N-14) | 6.83
Cc1cccc(C[C@@H]2NC(=O)[C@H](CC(=O)O)NC(=O)[C@H](Cc3ccc(OCC(=O)O)cc3)NC(=O)[C@H](CN)NC(=O)CSC[C@@H](C(=O)N[C@@H](CCN)C(=O)NCCCCCCCCCCC(=O)O)NC(=O)[C@H](CCCC(N)=O)NC(=O)[C@H](C(C)C)NC(=O)[C@H](CC3CCCCC3)NC(=O)[C@H](CCN)NC(=O)[C@@H](CC(C)C)NC(=O)[C@H](CCCN)NC(=O)[C@H](Cc3ccc(O)cc3)NC(=O)[C@H](Cc3ccc(-c4ccccc4)cc3)NC(=O)[C@H](Cc3ccc(O)cc3)NC2=O)c1 [Compound 2750] ({CH2CO}-[Dap]Y(Carboxymethyl)D[Phe(3-Me)]Y[Bip]Y[Orn][dL][Dab][Cha]V[Aad](NH2)C[Dab][Aun]-OH; thioether N-14) | 8.04
Cc1cccc(C[C@@H]2NC(=O)[C@H](CC(=O)O)NC(=O)[C@H](Cc3ccc(OCC(=O)O)cc3)NC(=O)[C@H](CN)NC(=O)CSC[C@@H](C(=O)N[C@@H](CCN)C(=O)NCCCCCCCCCCC(=O)O)NC(=O)[C@H](CCCC(N)=O)NC(=O)[C@H](C(C)C)NC(=O)[C@H](CC3CCCCC3)NC(=O)[C@H](CCN)NC(=O)[C@@H](CC(C)C)NC(=O)[C@H](CCCN)NC(=O)[C@H](Cc3ccc(O)cc3)NC(=O)[C@H](Cc3ccc(-c4ccccc4)cc3)NC(=O)[C@H](C(C)C)NC2=O)c1 [Compound 2751] ({CH2CO}-[Dap]Y(Carboxymethyl)D[Phe(3-Me)]V[Bip]Y[Orn][dL][Dab][Cha]V[Aad](NH2)C[Dab][Aun]-OH; thioether N-14) | 7.90
Cc1cccc(C[C@@H]2NC(=O)[C@H](CC(=O)O)NC(=O)[C@H](Cc3ccc(OCC(=O)O)cc3)NC(=O)[C@H](CN)NC(=O)CSC(C)(C)[C@@H](C(=O)N[C@@H](CCN)C(=O)NCCCCCCCCCCC(=O)O)NC(=O)[C@H]([C@@H](C)O)NC(=O)[C@H](C(C)C)NC(=O)[C@H](CC3CCCCC3)NC(=O)[C@H](CCN)NC(=O)[C@@H](CC(C)C)NC(=O)[C@H](CCCN)NC(=O)[C@H](Cc3ccc(O)cc3)NC(=O)[C@H](Cc3ccc(-c4ccccc4)cc3)NC(=O)[C@H](C(C)C)NC2=O)c1 [Compound 2753] ({CH2CO}-[Dap]Y(Carboxymethyl)D[Phe(3-Me)]V[Bip]Y[Orn][dL][Dab][Cha]VT[Pen][Dab][Aun]-OH; thioether N-14) | 6.95
Cc1cccc(C[C@@H]2NC(=O)[C@H](CC(=O)O)NC(=O)[C@H](Cc3ccc(OCC(=O)O)cc3)NC(=O)[C@H](CN)NC(=O)CSC[C@@H](C(=O)N[C@@H](CCN)C(=O)NCCCCCCCCCCC(=O)O)NC(=O)[C@@H](CC(N)=O)NC(=O)[C@H](C(C)C)NC(=O)[C@H](CC3CCCCC3)NC(=O)[C@H](CCN)NC(=O)[C@@H](CC(C)C)NC(=O)[C@H](CCCN)NC(=O)[C@H](Cc3ccc(O)cc3)NC(=O)[C@H](Cc3ccc(-c4ccccc4)cc3)NC(=O)[C@H](C(C)C)NC2=O)c1 [Compound 2754] ({CH2CO}-[Dap]Y(Carboxymethyl)D[Phe(3-Me)]V[Bip]Y[Orn][dL][Dab][Cha]V[dN]C[Dab][Aun]-OH; thioether N-14) | 7.27
Cc1cccc(C[C@@H]2NC(=O)[C@H](CC(=O)O)NC(=O)[C@H](Cc3ccc(OCC(=O)O)cc3)NC(=O)[C@H](CN)NC(=O)CSC[C@@H](C(=O)N[C@@H](CCN)C(=O)NCCCCCCCCCCC(=O)O)NC(=O)[C@@H](CC(N)=O)NC(=O)[C@H](C(C)C)NC(=O)[C@H](CC(C)C)NC(=O)[C@H](CCN)NC(=O)[C@@H](CC(C)C)NC(=O)[C@H](CCCN)NC(=O)[C@H](Cc3ccc(O)cc3)NC(=O)[C@H](Cc3ccc(-c4ccccc4)cc3)NC(=O)[C@H](C(C)C)NC2=O)c1 [Compound 2755] ({CH2CO}-[Dap]Y(Carboxymethyl)D[Phe(3-Me)]V[Bip]Y[Orn][dL][Dab]LV[dN]C[Dab][Aun]-OH; thioether N-14) | 7.52
